biological target: L-lactate dehydrogenase B chain (Homo sapiens, UniProt P07195)
Sequence (P07195 whole entry): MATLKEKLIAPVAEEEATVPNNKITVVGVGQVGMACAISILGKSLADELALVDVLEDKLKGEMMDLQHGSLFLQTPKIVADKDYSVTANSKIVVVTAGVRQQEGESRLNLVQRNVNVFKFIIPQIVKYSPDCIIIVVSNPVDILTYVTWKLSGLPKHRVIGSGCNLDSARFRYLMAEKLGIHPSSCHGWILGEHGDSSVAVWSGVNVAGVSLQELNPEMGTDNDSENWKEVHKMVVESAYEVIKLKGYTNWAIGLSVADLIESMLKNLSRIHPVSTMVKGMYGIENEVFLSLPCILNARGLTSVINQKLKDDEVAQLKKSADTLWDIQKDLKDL
Description: inhibitory activity against Human Lactate Dehydrogenase (LDH-H)

Row | Ki | SMILES
1 | 1 µM | CCCc1c(O)c(O)c(C(=O)O)c2cc(Cc3ccccc3)c(C)cc12
2 | 49 µM | CCCc1c(O)c(O)c(C(=O)O)c2ccc(C)cc12
3 | 7 µM | Cc1cc2c(C(C)C)c(O)c(O)c(C(=O)O)c2cc1Cc1ccccc1
